Data published in PMC6934184, “Selective DNA-PKcs inhibition extends the therapeutic index of localized radiotherapy and chemotherapy” (The Journal of Clinical Investigation, 2019).

Biological target: T1, AURKA (Aurora A) (Homo sapiens, UniProt O14965)
T1 construct: purchased Thermo Fisher Scientific (Life Technologies) SelectScreen
Test: SelectScreen Z'LYTE
Assay type: biochemical
Outline: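 SelectScreen broad panel; activity (Z'LYTE, Adapta) plus binding formats. ATP: Km app for CSF1R Z'LYTE; 10 for CAMK1 Adapta. Readout = % per kinase.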

T1 sequence (O14965 whole entry): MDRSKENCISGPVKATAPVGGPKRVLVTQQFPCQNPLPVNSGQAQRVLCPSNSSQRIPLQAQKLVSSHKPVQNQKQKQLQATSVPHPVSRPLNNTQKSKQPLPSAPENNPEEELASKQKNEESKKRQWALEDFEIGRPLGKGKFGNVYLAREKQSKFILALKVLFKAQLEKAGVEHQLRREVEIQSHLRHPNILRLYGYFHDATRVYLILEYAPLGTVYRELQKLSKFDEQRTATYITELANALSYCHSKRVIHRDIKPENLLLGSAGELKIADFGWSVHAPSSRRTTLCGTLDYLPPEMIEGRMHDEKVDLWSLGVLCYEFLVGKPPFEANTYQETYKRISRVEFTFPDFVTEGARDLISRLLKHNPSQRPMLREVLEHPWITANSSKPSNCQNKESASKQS

For `CN(C(=O)CN1CCOCC1)c1ccc2sc3c(-c4cccc5c(=O)cc(N6CC7CCC(C6)O7)oc45)cccc3c2c1` [NU5455], the inhibition at 1 µM was -0.1%.
